Experimental findings from article PMC11322497 (Frontiers in Pharmacology, 2024) are described below.

The subject of this series is high fat diet (HFD) rabbit model of metabolic-associated steatohepatitis (MASH). Put plainly: HFD rabbit study, acute 5-day treatment at week 12: clinical and biochemical data, tolerability. In kind it is in vivo. The note with it: for ALT / AST / Glycaemia / Liver Weight / MAP / OGTT (iAUC) / Plasma Cholesterol / Plasma Triglycerides: 30 mg/kg p.o. q.d. 5 days, mean ± SD, n = 3. How it is done:
A total number of 64 male New Zealand White rabbits (Charles River, Calco, Lecco, Italy), weighing about 3 kg, were individually caged under standard conditions in a temperature- and humidity-controlled room on a 12 h light/dark cycle. Water and food were unrestricted throughout the study. Experimental procedures were conducted using the facilities of the Department of Biomedical Experimental and Clinical Sciences “Mario Serio” and Department of Experimental and Clinical Medicine, and those of CE.S.A.L. (Centro Stabulazione degli Animali da Laboratorio), and NEUROFARBA Department, University of Florence, Italy.
The dose employed was established based on pilot pharmacokinetics studies in rabbits performed historically in naïve rabbits (data not shown). This first part of the study allowed the determination of the therapeutic benefits of selvigaltin following acute treatment, thus validating the model for further investigation of this mechanism in a chronic treatment protocol.
After 1 week of standard diet, animals (n = 12) were randomly assigned to the following groups (Table 1A): • Control rabbits continued to receive a regular diet (RD) for 12 weeks and were treated for 5 days (days 1–5, p.o.), during the last week before culling, with either vehicle; RD+1W Veh group] or GB1211 (30 mg/kg; RD + 1W 30 mg group); • Rabbits received a high fat diet (HFD) for 12 weeks (RD implemented with 0.5% cholesterol and 2.5% vegetable fat) and were treated for 5 days (days 1–5, p.o.), during the last week before culling, with either vehicle (HFD + 1W Veh group) or GB1211 (30 mg/kg; HFD + 1W 30 mg group).
The oral glucose tolerance test (OGTT) was performed in accordance with the published method ([Filippi et al., 2009]). Briefly, after an overnight fast, a 50% glucose solution was orally administered to the animals at a dose of 1.5 g/kg. Blood samples were collected before and 15, 30, and 120 min after glucose loading. The incremental area under the curve (iAUC) was calculated by using GraphPad Prism (GraphPad Software, San Diego, CA). Blood samples for analyses were obtained from the marginal ear vein at week 8 or 12, in all groups. All blood samples were collected in standard conditions, before 10 a.m. after an overnight fasting. The blood was immediately centrifuged at 2,000 g for 20 min at 4°C and collected plasma/serum stored at −80°C until assayed. Plasma glucose, total cholesterol, triglycerides, transaminases (AST and ALT), and gamma-glutamyl transferase levels were measured using an automated system (Cobas 8000, Roche Diagnostics International AG, Rotkreuz, Switzerland). Serum alkaline phosphatase, albumin and total bilirubin levels were measured at IDEXX Laboratories (Kornwestheim, Germany), using an automated system (AU480, Beckman-Coulter, Brea, CA) with kinetic and photometric colour tests as per the following methods: alkaline phosphatase - alkaline buffer solution [2-amino-2-methylpropanol (AMP) in conjunction with p-nitrophenyl phosphate (pNPP)], according to the recommendation of the International Federation for Clinical Chemistry; albumin - the reaction of bromocresol green with albumin produces a colour complex, the absorption of which is measured dichromatically ([Doumas et al., 1971]); total bilirubin - a stabilized diazonium salt, 3,5-dichlorophenyldiazonium tetrafluoroborate (DPD), reacts with bilirubin to formazobilirubin, which absorbs at 570 nm ([Tolman and Rej, 1999]).
Mean arterial blood pressure (MAP) was measured by using a polyethylene catheter inserted into a femoral artery at week 8 or 12, after ketamine (10 mg/kg i.v.) and sodium thiopental (50 mg/kg i.v.) sedation.

Turning to `OC[C@H]1O[C@H](Sc2cncc(Br)c2)[C@H](O)[C@@H](n2cc(-c3cc(F)c(F)c(F)c3)nn2)[C@H]1O` [selvigaltin], where the note is “30 mg/kg/day p.o., 5 days”, the tolerability result is “well tolerated”. Further, for the setting “HFD rabbits”, the ALT is listed as 97.33 ± 54.99 U/L, the AST was 231.67 ± 22.30 U/L, the Glycaemia worked out at 1.60 ± 0.14 gr/L and the “Liver Weight” value is recorded as 3.94 ± 0.55 % of BW. Where the note is “HFD rabbits”, the MAP turned out to be 130.83 ± 20.36 mmHg, the “OGTT (iAUC)” value came to 220.33 ± 8.63, the “Plasma Cholesterol” value was found to be 2064.00 ± 268.00 mg/dL and the “Plasma Triglycerides” value stood at 88.00 ± 42.14 mg/dL. Further, where the note is “RD rabbits”, the ALT was 36.33 ± 25.11 U/L, the AST amounted to 29.33 ± 5.86 U/L, the Glycaemia was 1.12 ± 0.17 gr/L and the “Liver Weight” value is given as 2.40 ± 0.33 % of BW. Moreover, under “RD rabbits”, the MAP was 88.75 ± 14.09 mmHg, the “OGTT (iAUC)” value amounted to 165.90 ± 11.12, the “Plasma Cholesterol” value came out at 21.67 ± 3.51 mg/dL and the “Plasma Triglycerides” value is given as 56.00 ± 21.28 mg/dL.
